Laboratory results from US20210163404A1, “NOVEL UREA COMPOUNDS AND BIOISOSTERES THEREOF AND THEIR USE FOR TREATING INFLAMMATION AND INFLAMMATION-RELATED PATHOLOGIES” (UNIVERSITÉ LAVAL, priority 2017, published 2021).
Values joined by “and” are separate entries in the source; they are usually repeats but may differ in a detail not shown here. Equal values may be shown once. Read-outs that look alike come from different tables or passages of the source.

Assays:
[1] = system: IL-6; assay: IL-6 expression in HaCaT cells stimulated with IL-17A and TNFα (ELISA); type: cell-based; conditions: Homo sapiens, read-out: Reduction IL-6 (%)
[2] = system: IL-6; assay: as above; type: cell-based, human; conditions: for Expression of IL-6, HaCaT: 10 μM solutions, HaCaT stimulated with IL-17A and TNFα, mean of five experiments in duplicate; for effect on the expression of IL-6 by HaCaT cells: HaCaT cells treated with IL-17 and TNFα
Source text: The effect of compounds 3a-b, 4a-e, 5a-e and 6a-e on the expression of IL-6 was subsequently assessed using the HaCaT spontaneously transformed aneuploid immortal keratinocyte cell line, stimulated by the addition of IL-17A and TNFα in the culture medium (Table 1). Curcumin and ibuprofen were used as known IL-6 expression inhibitors. DMSO was used for solubilizing the drugs. […] Indeed, the inhibitory effect of these molecules was at least equivalent to that of curcumin [27] and ibuprofen, both recognized as anti-inflammatory drugs. The inhibitory effect of the substituted phenyl cycloalkylureas in accordance with an embodiment of the present disclosure on proinflammatory cytokines was also found at the mRNA level. Indeed, the mRNAs of the cytokines IL-6 and TNF-α as well as the mRNA of the chemokine IL-8 were lowered in TNF-α/IL-17A-stimulated HaCaT cells. Similar results were obtained in THP-1 cells stimulated with LPS where treatments with CHEU and 4e diminished the mRNA levels of the cytokines IL-1B, IL-6 and TNF-α in addition to the mRNA levels of the chemokine IL-8. It is surmised that the anti-inflammatory mechanism of action of the compounds of the present disclosure is likely mediated, at least in part, by modulating the phosphorylation state of the MAP kinase p38. […] Addition of a compound in accordance with an embodiment of the present disclosure, prior to stimulation with the aforementioned cytokines, decreases the level of p-p38 at 30-60 minutes post-stimulation. This diminution in p-p38 levels destabilizes the mRNAs of pro-inflammatory cytokines, non-limiting examples of which include TNF-α and IL-6. Moreover, it is surmised that the effect of the compounds of the present disclosure on p-p38 is potentially mediated by the activation of the phosphatase named DUSP1.
HaCaT cells (1×10^5) were suspended in DMEM culture media (500 μL) and incubated for 24 h in 24-well microtiter plates at 37° C. in a moisture-saturated atmosphere containing 5% CO2. Compounds were solubilized in DMSO and diluted in fresh DMEM. The compound (500 μL) was then added to the cell medium to obtain a final concentration of […] and the cells incubated over a period of 1 hour. In the meantime, IL-17α (200 ng/mL) and TNFα (20 ng/mL) (PeproTech, Rocky Hill, N.J.) were added to the drug solution in DMEM. Following the initial incubation of the cells, the culture medium was aspirated from each well and the IL-17α+ TNFα+ compound solution was added to each well for incubation (6 hours). The culture media was then removed and transferred to a clean tube (1.5 mL) at −80° C. until the ELISA test was performed. The presence of IL-6 in the cell media was determined using an IL-6 human Duoset ELISA kit (Fisher Scientific, Ottawa, On.) according to the manufacturer's instructions. Standards and samples were prepared and assessed in duplicate. Two separate replicates were performed for each sample. The absorbance was measured at 450 nm and 540 nm using a TECAN infinite M1000 plate reader.

[3] = system: HT-29 colon adenocarcinoma cells; assay: Antiproliferative activity (NCI procedure, sulforhodamine B), HT-29; type: cell-based, human; conditions: 48 h; for GI50: Table 2; for IC50: Table 6, unit inferred, tested 781 nM to 100 μM
Method in brief: (§1)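 Cells seeded in DMEM, grown 24 h at 37 °C, then exposed 48 h to serial dilutions from 100 μM to 781 nM (DMSO <0.5%). TCA fixation, sulforhodamine B staining, absorbance at 530-568 nm; growth inhibition relative to plates fixed on treatment day. At least two experiments in triplicate.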

[4] = system: HaCaT keratinocyte cell line; assay: Antiproliferative activity (NCI procedure, sulforhodamine B), HaCaT; type: cell-based, human; conditions: 48 h; for GI50: Table 2; for IC50: Table 6, unit inferred, tested 781 nM to 100 μM
Method in brief: as §1

[5] = system: HDFn neonatal dermal fibroblast cell line; assay: Antiproliferative activity (NCI procedure, sulforhodamine B), HDFn; type: cell-based, human; conditions: 48 h; for GI50: Table 2; for IC50: Table 6, unit inferred, tested 781 nM to 100 μM
Method in brief: as §1

[6] = system: A549 adenocarcinoma alveolar epithelial cancer cells; assay: Antiproliferative activity (NCI procedure, sulforhodamine B), A549; type: cell-based, human; conditions: 48 h; for GI50: Table 2; for IC50: Table 6, unit inferred, tested 781 nM to 100 μM
Method in brief: as §1

[7] = system: HaCaT cells; assay: Cell cycle analysis by flow cytometry; type: cell-based, human; conditions: for Cell cycle progression G0-G1 / Cell cycle progression G2-M / Cell cycle progression S: 10 μM, 24 h; for effect on cell cycle progression: in words
Description: The effect of compounds 3a-b, 4e, 5b-c, 6a and 6e on cell cycle progression was subsequently assessed using a flow cytometer in accordance with established experimental protocols to evaluate any potential drug toxicity at specific phases of the cell cycle (Table 3).
HaCaT cells (2.5×10^5) were incubated with compounds 3a-b, 4e, 5b-c, 6a and 6e and curcumin (10 μM) over a period of 24 h. The cells were subsequently trypsinized, washed with PBS, resuspended in PBS (250 μL), fixed by the addition of ice-cold EtOH (750 μL) under agitation and stored at −20° C. until analysis. Prior to FACS analysis, cells were washed with PBS and resuspended in PBS (500 μL) containing 4′,6′-diamidino-2-phenylindole (DAPI) (2 μg/mL). The cell cycle was analyzed using an LSR II flow cytometer (BD Biosciences, Franklin Lakes, N.J.).

[8] = system: cancer cell lines; conditions: background, refs [4, 5]; in words; cited from earlier work
[9] = system: mRNAs of IL-1B, IL-6, TNF-α and IL-8; assay: mRNA levels of cytokines in THP-1 cells stimulated with LPS; type: cell-based; conditions: in words
Source text: The effect of compounds 3a-b, 4a-e, 5a-e and 6a-e on the expression of IL-6 was subsequently assessed using the HaCaT spontaneously transformed aneuploid immortal keratinocyte cell line, stimulated by the addition of IL-17A and TNFα in the culture medium (Table 1). Curcumin and ibuprofen were used as known IL-6 expression inhibitors. DMSO was used for solubilizing the drugs. […] Indeed, the inhibitory effect of these molecules was at least equivalent to that of curcumin [27] and ibuprofen, both recognized as anti-inflammatory drugs. The inhibitory effect of the substituted phenyl cycloalkylureas in accordance with an embodiment of the present disclosure on proinflammatory cytokines was also found at the mRNA level. Indeed, the mRNAs of the cytokines IL-6 and TNF-α as well as the mRNA of the chemokine IL-8 were lowered in TNF-α/IL-17A-stimulated HaCaT cells. Similar results were obtained in THP-1 cells stimulated with LPS where treatments with CHEU and 4e diminished the mRNA levels of the cytokines IL-1B, IL-6 and TNF-α in addition to the mRNA levels of the chemokine IL-8. It is surmised that the anti-inflammatory mechanism of action of the compounds of the present disclosure is likely mediated, at least in part, by modulating the phosphorylation state of the MAP kinase p38. […]

Structure (SMILES) | Expression of IL-6, HaCaT [2] [pg/mL] | GI50 ([3]; Homo sapiens, HT-29) [µM] | IC50 ([3]; Homo sapiens, HT-29) [µM] | GI50 ([4]; Homo sapiens, HaCaT) [µM] | IC50 ([4]; Homo sapiens, HaCaT) [µM] | GI50 ([5]; Homo sapiens, Fibroblast) [µM] | IC50 ([5]; Homo sapiens, Fibroblast) [µM] | GI50 ([6]; Homo sapiens, A549) [µM] | IC50 ([6]; Homo sapiens, A549) [µM] | Cell cycle progression G0-G1 [7] | Cell cycle progression G2-M [7] | Cell cycle progression S [7] | effect on cell cycle progression [7] | melting point | further results
C[C@@H]1C[C@H]2[C@@H]3CCC4=CC(=O)C=C[C@]4(C)[C@@]3(F)[C@@H](O)C[C@]2(C)[C@@]1(O)C(=O)CO [Dexamethasone] |  |  |  |  |  |  |  |  |  |  |  |  |  |  | inhibition at 1 µM ([1]; Table 6, HaCaT stimulated with IL-17A and TNFα): 45.3%; inhibition at 1 µM ([1]; Table 8, HaCaT stimulated with IL-17A and TNFα): 54.5%
CC(C)(C)c1ccc(NC(=O)NC2CCCC2)cc1 [Compound 31, 1-(4-(t-Butyl)phenyl)-3-cyclopentylurea] | 127.5 ± 17.3 | > 100 | ≥ 100 | > 100 | ≥ 100 | > 100 | ≥ 100 | 83 | 83 | 48 | 25.8 | 25.1 | did not affect the cell cycle progression | 218 to 223 °C and 219 to 221 °C | 
CC(C)(C)c1ccc(NC(=O)NCCCl)cc1 [tBCEU, reference compound] | 130.6 ± 15.6 |  |  |  |  |  |  |  |  | 57.3 | 15.6 | 26.8 | arresting the cell cycle progression in the G2-M phase |  | effect on the expression of IL-6 by HaCaT cells ([2]; in words): significant decrease; GI50 [3]: 6.5 µM; GI50 [4]: 12 µM; GI50 [5]: 11 µM; GI50 [6]: 6.9 µM; antiproliferative activity on numerous cancer cell lines [8]: potent antiproliferative activity
O=C(NCC1CCC1)Nc1ccc(I)cc1 [Compound 23, 1-(Cyclobutylmethyl)-3-(4-iodophenyl)urea] | 33.9 ± 4.3 | 29 | 29 | 62 | 62 | 74 | 74 | 27 | 27 | 45 | 29.4 | 25.6 |  | 159 to 160 °C | inhibitory effect on IL-6 expression in HaCaT cells ([2]; 10 μM, stimulated with IL-17A and TNFα, in words): significant inhibitory effect
CCNC(=O)Nc1ccc(C(C)(C)C)cc1 [Compound 63, 1-(4-(t-Butyl)phenyl)-3-ethylurea] | 81.9 ± 10.8 | 75 | 75 | > 100 | ≥ 100 | 60 | 60 | 69 | 69 |  |  |  |  | 136 to 139 °C | Cell cycle progression G0-G1 ([7]; listed as 3a): 44; Cell cycle progression G2-M ([7]; listed as 3a): 31; Cell cycle progression S ([7]; listed as 3a): 25.1
O=C(Nc1ccc(C2CCCCC2)cc1)NC1CC1 [Compound 54, 1-(4-Cyclohexylphenyl)-3-cyclopropylurea] | 29.2 ± 3.5 | 54 | 54 | 74 | 74 | 40 | 40 | 48 | 48 | 47.7 | 28.1 | 24.2 | did not affect the cell cycle progression | 173 to 176 °C | mRNA levels of the cytokines IL-1B, IL-6 and TNF-α and of the chemokine IL-8 [9]: diminished
O=C(NCCCl)Nc1ccc(C2CCCCC2)cc1 [cHCEU, 1-(2-chloroethyl)-3-(p-cyclohexylphenyl)urea, reference compound] | 46.8 ± 8.5 | 15 |  | 27 |  | 11 |  | 12 |  | 56.5 | 19.1 | 24.4 |  |  | effect on the expression of IL-6 by HaCaT cells ([2]; in words): significant decrease; antiproliferative activity on numerous cancer cell lines [8]: potent antiproliferative activity
